Results: US12037415B2, “Peptide and pharmaceutical composition for treating an eye disease comprising the same as an active pharmaceutical ingredient” (YuYu Pharma, Inc., priority 2017, dated 2024)
Starred links: 1 amine or outer side, 2 acyl side, 3 side chain; linkers in the order of their positions; H or OH if unused. Non-standard residues stand in square brackets, D forms with d. Residues, ends and D or L forms follow the SMILES beside them. cisHyp = O=C(O)[C@@H]1C[C@H](O)CN1; X1 = O=C([C@H](CCCCO)N[*:1])[*:2]; Hyp = O=C(O)[C@@H]1C[C@@H](O)CN1; pGlu = O=C1CC[C@@H](C(=O)O)N1

Assays:
[1] = tested on: rats with dry eye syndrome (extraorbital lacrimal gland excision, ELGE); test: Amount of tear secretion (Schirmer test, cobalt chloride paper) in rats with ELGE-induced dry eye syndrome; assay type: in vivo, rat; conditions: 0.3% solution (DS 3%), administration for 14 days; study of YDE-029 to YDE-043
Source text: (§1) In order to evaluate the eye protection effect on dry eye syndrome by YDE-001 to YDE-028 prepared in Working Example 1, a total of 320 Sprague-Dawley-type male rats (OrientBio, Seungnam, Korea) were adapted for 7 days. Thereafter, dry eye syndrome was induced in 264 test rats through extraorbital lacrimal gland excision (hereinafter, ELGE). 8 test rats without the eye abnormality were subjected to a sham operation as a control group.
(§2) The rats were systemically anesthetized by inhaling a mixed gas of 2% to 3% of isoflurane (Hana Pharm. Co., Hwasung, Korea), 70% of N2O, and 28.6% of O2 using a rodent anesthesia machine (Surgivet, Waukesha, Wis., USA) and a ventilator (Model 687, Harvard Apparatus, Cambridge, UK). Thereafter, the extraorbital lacrimal gland located in the subdermal area above the masseter muscle and under the optic nerve was excised through a transverse incision in a size of 10 mm on the anterior part of the left ear tragus. The skin was sutured by a general method. […] After 6 days following the ELGE operation, confirmation was performed through the Schirmer test by measuring the amount of tear secretion whether dry eye syndrome had been induced. Meanwhile, each rat of the control group with the sham operation was checked for the presence and location of the extraorbital lacrimal gland through a skin incision, and the skin was then sutured without the excision thereof (FIG. 134).
(§3) In addition, in order to evaluate the eye protection effect on dry eye syndrome by YDE-029 to YDE-043 prepared in Working Example 1, a total of 200 Sprague-Dawley-type male rats (OrientBio, Seungnam, Korea) were adapted for 7 days. Dry eye syndrome was induced in 165 test rats through the ELGE. 8 test rats without the eye abnormality were subjected to the sham operation as a control group. The ELGE was carried out as described above.
(§4) For YDE-001 to YDE-028, YY-102 and the 28 YDE-series were each dissolved in physiological saline at a concentration of 3 mg/ml and administered at a dose of 5 μl/eye at 9:30 am and 3:30 pm daily for 14 days after 7 days from the ELGE operation for a total of 28 times. The DS solution was dissolved in physiological saline at a concentration of 30 mg/ml and administered at a dose of 5 μl/eye twice a day for 14 days after 7 days from the ELGE operation for a total of 28 times. For the sham control and the ELGE control groups, the same stimulation as the administration was applied. In order to prevent excessive eye dryness, the same volume of physiological saline was applied in the same manner in place of the test substances.
as §4, with “Further, For YDE-029” for “For YDE-001”, “Further, For YDE-029 to YDE-043,” for “For YDE-001 to YDE-028,”, “YDE-029 to YDE-043, YY-102 and” for “YDE-001 to YDE-028, YY-102 and”, “and the 15 YDE-series were” for “and the 28 YDE-series were”, “the test substances (FIG. 137).” for “the test substances.”
After 6 days from the ELGE surgery, the changes in the amount of tear secretion were measured at day 7 and day 14 after the administration of YDE-001 to YDE-043. The amount of tear secretion was measured by the […] travel distance of tears absorbed by cobalt chloride paper in a size of 1×15 mm (Toyo Roshi Kaisha, Japan).
The cobalt chloride paper was placed in the lateral canthus of a rat for 60 seconds to absorb tears (FIG. 139). The length of the area absorbed from the corner of the cobalt chloride paper was measured with an electronic digital caliper (Mytutoyo, Tokyo, Japan) (FIG. 138).

[2] = tested on: cornea of rats with dry eye syndrome (ELGE); test: Corneal permeability of fluorescent dye (corneal damage) in rats with ELGE-induced dry eye syndrome; assay type: in vivo, rat; conditions: 0.3% solution, day 14 after the administration, study of YDE-029 to YDE-043 (Table 17)
Source text: as §1, §2, §3, §4
as §4, with “Further, For YDE-029” for “For YDE-001”, “Further, For YDE-029 to YDE-043,” for “For YDE-001 to YDE-028,”, “YDE-029 to YDE-043, YY-102 and” for “YDE-001 to YDE-028, YY-102 and”, “and the 15 YDE-series were” for “and the 28 YDE-series were”, “the test substances (FIG. 137).” for “the test substances.”
After YDE-001 to YDE-028 were each administered to the eyes […], the changes in the corneal permeability were checked.
In order to measure the corneal permeability, Zolethyl 50™ (Virbac Lab., Carros, France), an animal anesthetic, was intraperitoneally injected at a dose of 25 mg/kg. Thereafter, saline containing a 1% (v/v) fluorescent solution (fluorescein sodium salt, Tokyo Kasei Kogyo Co., Tokyo, Japan) was applied to the eyes at a dose of 5 μl/eye. The eyes thus treated were closed and fixed with a tape. After 1 hour, the remaining fluorescent solution was removed using a cotton swab (FIG. 142). […]

| Structure (SMILES) | Amount of tear secretion as compared with the ELGE control group [1] | Permeability of fluorescent dye (%) [2] |
| --- | --- | --- |
| CC(C)C[C@H](NC(=O)CNC(=O)[C@H](CC(C)C)NC(=O)[C@H](CCC(N)=O)NC(=O)CNC(=O)[C@@H]1C[C@@H](O)CN1)C(=O)N[C@@H](C)C(=O)NCC(=O)N1CCC[C@H]1C(=O)N[C@@H](Cc1ccc(O)cc1)C(=O)O [YDE-029, HyP-Gly-Gln-Leu-Gly-Leu-Ala-Gly-Pro-Tyr] (H-[Hyp]GQLGLAGPY-OH) | did not show any significant changes | 63.45 ± 11.57% |
| CC(C)C[C@H](NC(=O)[C@@H]1CCCN1C(=O)CNC(=O)[C@H](C)NC(=O)[C@H](CC(C)C)NC(=O)CNC(=O)[C@H](CC(C)C)NC(=O)[C@H](CCC(N)=O)NC(=O)CNC(=O)[C@@H]1C[C@@H](O)CN1)C(=O)O [YDE-030, HyP-Gly-Gln-Leu-Gly-Leu-Ala-Gly-Pro-Leu] (H-[Hyp]GQLGLAGPL-OH) | did not show any significant changes | 30.60 ± 13.61% |
| CC(C)C[C@H](NC(=O)CNC(=O)[C@H](CC(C)C)NC(=O)[C@H](CCC(N)=O)NC(=O)CNC(=O)[C@@H]1C[C@@H](O)CN1)C(=O)N[C@@H](C)C(=O)NCC(=O)N1CCC[C@H]1C(=O)N[C@@H](CCC(N)=O)C(=O)O [YDE-032, HyP-Gly-Gln-Leu-Gly-Leu-Ala-Gly-Pro-Gln] (H-[Hyp]GQLGLAGPQ-OH) | did not show any significant changes | 58.90 ± 19.81% |
| CC(C)C[C@H](NC(=O)CNC(=O)[C@H](CC(C)C)NC(=O)[C@H](CCC(N)=O)NC(=O)CNC(=O)[C@@H]1C[C@@H](O)CN1)C(=O)N[C@@H](C)C(=O)NCC(=O)N1CCC[C@H]1C(=O)N[C@@H](CCCCO)C(=O)O [YDE-033, HyP-Gly-Gln-Leu-Gly-Leu-Ala-Gly-Pro-Nle(6-OH)] (H-[Hyp]GQLGLAGP[X1]-OH) | did not show any significant changes | 60.55 ± 21.22% |
| CC(C)C[C@H](NC(=O)CNC(=O)[C@H](CC(C)C)NC(=O)[C@H](CCC(N)=O)NC(=O)CNC(=O)[C@@H]1C[C@H](O)CN1)C(=O)N[C@@H](C)C(=O)NCC(=O)N1CCC[C@H]1C(=O)N[C@@H](CCCCN)C(=O)O [YDE-034, Hyp(2S, 4S)-Gly-Gln-Leu-Gly-Leu-Ala-Gly-Pro-Lys] (H-[cisHyp]GQLGLAGPK-OH) | did not show any significant changes | 32.17 ± 12.94% |
| CC(C)C[C@H](NC(=O)CNC(=O)[C@H](CC(C)C)NC(=O)[C@H](CCC(N)=O)NC(=O)CNC(=O)[C@@H]1CCC(=O)N1)C(=O)N[C@@H](C)C(=O)NCC(=O)N1CCC[C@H]1C(=O)N[C@@H](CCCCN)C(=O)O [YDE-036, (5-oxo)Pro-Gly-Gln-Leu-Gly-Leu-Ala-Gly-Pro-Lys] ([pGlu]GQLGLAGPK-OH) | did not show any significant changes | 57.87 ± 22.91% |
| CC(C)C[C@H](NC(=O)CNC(=O)[C@H](CC(C)C)NC(=O)[C@H](CCC(N)=O)NC(=O)CNC(=O)[C@@H]1C[C@@H](O)CN1)C(=O)N[C@@H](C)C(=O)O [YDE-041, HyP-Gly-Gln-Leu-Gly-Leu-Ala] (H-[Hyp]GQLGLA-OH) | did not show any significant changes | 46.38 ± 26.65% |
